Experimental data published in PMC10489644, “In Vitro Evaluation of the Potential for Drug Interactions by Salidroside” (Nutrients, 2023).
Several values for one entry are separate records, joined by “and”; a condition that tells them apart may be missing. Equal entries are not always repeated. Where two headings read alike, the source gives them in different places.

Assays:
CYP1A2 [1] = target: T1, CYP1A2 (Homo sapiens, UniProt P05177); assay: Time-dependent inhibition (IC50 shift) in human liver microsomes; assay type: in vitro ADME
T1 construct: Mixed human liver microsomes were purchased from BioreclamationIVT; tissue BioreclamationIVT; host or cells: mixed-donor pool of human liver microsomes (Lot ZZQ)
T1 sequence (P05177 1-516): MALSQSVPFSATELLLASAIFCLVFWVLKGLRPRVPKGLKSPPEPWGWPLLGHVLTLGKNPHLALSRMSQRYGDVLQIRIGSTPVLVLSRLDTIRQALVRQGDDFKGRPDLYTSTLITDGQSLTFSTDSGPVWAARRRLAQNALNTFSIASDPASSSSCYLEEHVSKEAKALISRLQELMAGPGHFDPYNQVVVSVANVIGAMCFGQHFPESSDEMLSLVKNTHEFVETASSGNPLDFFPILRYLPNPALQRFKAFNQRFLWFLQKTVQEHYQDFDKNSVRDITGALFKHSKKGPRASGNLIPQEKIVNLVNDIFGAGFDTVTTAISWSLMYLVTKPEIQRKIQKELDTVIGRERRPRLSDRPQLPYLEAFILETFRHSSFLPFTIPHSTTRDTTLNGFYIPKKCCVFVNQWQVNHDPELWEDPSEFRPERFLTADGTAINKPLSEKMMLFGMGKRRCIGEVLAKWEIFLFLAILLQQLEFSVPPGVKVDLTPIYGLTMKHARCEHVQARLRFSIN
Protocol: Incubation without 30 min pre-incubation, 178.5 µL of liver microsomes working was pre-incubated in a 37 °C water bath for 30 min. After the pre-incubation, 1.5 μL of test compound or control compound working solution, 60 μL of substrate working solution, and 60 μL of NADPH working solution were added; then, the reaction mixture was mixed by pipetting up and down and then incubated at 37 °C for 10 min. Incubation with 30 min pre-incubation. Next, 1.5 μL of test compound or control compound working solutions and 60 μL of NADPH working solution were added into 178.5 μL of liver microsome working solution, then the reaction mixture was mixed by pipetting up and down and then pre-incubated at 37 °C for 30 min. After the pre-incubation, 60 μL of substrate working solution was added, then the reaction mixture was mixed by pipetting up and down and then incubated at 37 °C for 10 min. Following the incubation, 300 μL of quenching solution was added into the corresponding wells to terminate the reaction. All the above samples were vortexed for 1 min and centrifuged at 4000 rpm, 4 °C for 15 min. After centrifugation, the supernatant was removed for further LC-MS/MS analysis.
(§1) For competitive and time-dependent CYP inhibition, the peak area ratios (PAR) of analyte/internal standard were used to semi-quantitatively determine the concentration of acetaminophen (CYP1A2 activity), 4’-hydroxydiclofenac (CYP2C9), 4’-hydroxymephenytoin (CYP2C19), dextrorphan (CYP2D6), 1’-hydroxymidazolam (CYP3A4), 6β-hydroxytestosterone (CYP3A4), hydroxybupropion (CYP2B6), and N-desethylamodiaquine (CYP2C8), with terfenadine as the internal standard by LC-MS/MS method. The HPLC-MS system utilized an Acquity UPLC system and Sciex API 4000 mass spectrometer in ESI positive mode, with quantitation employing MRM. Samples were injected onto an Atlantis T3 5 μM column (2.1 x 50 mm). […]

[2] = Rat pharmacokinetics after IV or oral dosing; assay type: in vivo, Male Sprague–Dawley rats; settings: fa = fb/((1 − CL/Qh) × 100%)
Protocol: An estimation of the maximum plasma concentration of salidroside in humans was made from the pharmacokinetics in rats after oral dosing and the recommended human daily dose of salidroside of 60 mg (two 30 mg capsules). Male Sprague–Dawley rats were dosed either with IV or orally at 12 mg/kg (N = 6/group). Salidroside was moderately cleared (21 mL/min/kg) and well absorbed orally.

[3] = design: method as in PMID 22139684, PMID 22525439; settings: rats, two studies; cited from earlier work
CYP1A2 [4] = assay: in vitro; settings: human; for Mean Fold Induction: 48 h
Protocol: The incubation solution was aspirated and replaced with incubation solution containing the same concentrations of salidroside, vehicle, or positive inducers for an additional 24 h. The total treatment period was 48 h. After the treatment period of 48 h, the incubation solution was aspirated. Hepatocytes were washed twice with pre-warmed HBSS containing 10 mM HEPES (HBSS I) and then the remaining solution was aspirated. Hepatocytes were washed once with pre-warmed HBSS I and incubated with 140 μL of RLT (lysis buffer from RNeasy 96 Kit) supplemented with 1% β-mercaptoethanol. Plates were then stored at −70 °C in a freezer until RNA analysis. Before RNA extraction, the frozen plate was thawed, and cell lysates were transferred to 96-well plates. RNA isolation was performed using a QIAcube RNA extraction system. Reverse transcription was performed to obtain cDNA. Quantification of the selective genes by real-time quantitative polymerase chain reaction (qPCR) was performed with TaqMan universal PCR Master Mix on the Bio-rad CFX384 TouchTM Real-Time PCR System. The relative change in the mRNA level of the selected target genes induced by each test compound was expressed in relation to the vehicle control sample, and fold changes in gene expression were determined by the ΔΔCt method.

CYP2C9 = CYP2C9 (Homo sapiens, UniProt P11712); assay: CYP direct inhibition in human liver microsomes
Protocol: Test compound/controls working solution or DMSO were added in 238.5 µL of liver microsomes working solution, mixed well by pipetting several times and pre-incubated in a 37 °C shaking water bath for 5 min. Following the pre-incubation, 60 µL of NADPH working solution were added, mixed well by pipetting several times, and incubated in a 37 °C shaking water bath for 10 min. Following the incubation, 300 µL of quenching solution were immediately added and vortexed for ~20 s to mix. All samples were centrifuged at 4000 rpm for 15 min at 4 °C and then the supernatant was transferred for LC-MS/MS analysis. IC50 values were determined by the Hill slope equation using Graph Pad Prism.
as §1

[5] = design: method as in PMID 29796228; settings: rat, cited from earlier work

Sequence of CYP2C9 (P11712 whole entry): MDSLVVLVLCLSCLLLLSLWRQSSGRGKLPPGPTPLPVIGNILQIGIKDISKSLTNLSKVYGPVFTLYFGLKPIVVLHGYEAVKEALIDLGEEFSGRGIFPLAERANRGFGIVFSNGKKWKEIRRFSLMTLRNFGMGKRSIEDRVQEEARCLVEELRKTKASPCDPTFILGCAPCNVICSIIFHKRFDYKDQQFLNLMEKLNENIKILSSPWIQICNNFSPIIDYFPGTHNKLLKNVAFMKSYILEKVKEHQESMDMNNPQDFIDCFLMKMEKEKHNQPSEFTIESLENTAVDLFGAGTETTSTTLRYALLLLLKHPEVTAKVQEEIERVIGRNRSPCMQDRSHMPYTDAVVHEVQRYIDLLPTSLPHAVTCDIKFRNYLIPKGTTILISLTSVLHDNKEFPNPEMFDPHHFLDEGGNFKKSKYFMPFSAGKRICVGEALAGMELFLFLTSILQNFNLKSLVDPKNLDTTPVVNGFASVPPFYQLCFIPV

OC[C@H]1O[C@@H](OCCc2ccc(O)cc2)[C@H](O)[C@@H](O)[C@@H]1O [Salidroside]
IC50 Shift (CYP1A2 [1]; IC50 without/with preincubation, >[…] positive for TDI): no shift
IC50 (CYP1A2 [1]; probe phenacetin, positive control not given, likely furafylline): > 50 µM
IC50 (CYP1A2 [1]; read-out: IC50 after 30 min Preincubation with NADPH, probe phenacetin, positive control not given, likely furafylline): > 50 µM
estimated oral absorption (fa) [2]: 46%
percentage recovery of an IV dose as unchanged in the urine [3]: 53.7% and 64%
Mean Fold Induction (CYP1A2 [4]; 1 µM): 1.3 fold
Mean Fold Induction (CYP1A2 [4]; 3 µM): 1.0 fold
Mean Fold Induction (CYP1A2 [4]; 10 µM): 1.1 fold
Mean Fold Induction (CYP1A2 [4]; 30 µM): 1.2 fold
fold induction at 48 h, 1 µM (CYP1A2 [4]; Mean Fold Induction): 0.9
fold induction at 48 h, 3 µM (CYP1A2 [4]; Mean Fold Induction): 0.9
fold induction at 48 h, 10 µM (CYP1A2 [4]; Mean Fold Induction): 0.9
fold induction at 48 h, 30 µM (CYP1A2 [4]; Mean Fold Induction): 0.8
IC50 (CYP2C9): > 50 µM
clearance ([5]; 12 mg/kg IV): 21 mL/min/kg
oral bioavailability (fb) ([5]; 12 mg/kg oral): 32.1%
observed Cmax ([5]; oral 12 mg/kg): 4300 ng/mL
Cmax ([5]; oral 12 mg/kg, read-out: observed Cmax): 14.3 µM
